Test results from publication PMC5369524 (Chemical Science, 2016).

How the values were obtained:
HIV = conditions: ref [55]; cited from earlier work
[1] = target: C-terminal ZF2 of HIV1NCp7 (Human immunodeficiency virus type 1 group M subtype B, UniProt P12493); conditions: figures in parentheses of Table 1
full NCp7 peptide = full NCp7 peptide (Human immunodeficiency virus type 1 group M subtype B, UniProt P12493)
[2] = target: full NCp7 zinc finger peptide (Human immunodeficiency virus type 1 group M subtype B, UniProt P12493); conditions: positive band centered at 210–220 nm

Row | K a, association with C-terminal ZF2 of HIV1NCp7 [1] | K a, association with full NCp7 peptide (full NCp7 peptide; figures in bold parentheses of Table 1) | K a, association constant with full NCp7 peptide (full NCp7 peptide; fluorescence quenching) | Effect on CD spectrum / tertiary structure of NCp7 [2] | Structure (SMILES) | Anti-HIV activity (HIV)
1 | – | – | – | – | CCn1cnc2c(=O)[nH]c(N)nc21.N.[Cl][Pt+].c1ccc2ncccc2c1 [SP-4-2-[PtCl(NH3)(9-EtGua)(quinoline)]^+] | modest anti-HIV activity
2 | (13.10 ± 0.94) ×10^3 M^–1 | (20 ± 0.08) ×10^3 M^–1 | 2.0 × 10^4 M^–1 | no major disruption of the peptide | CCn1cnc2c(=O)[nH]c(N)nc21.NCCNCCN.[Pt+2] [[Pt(dien)(9-EtGua)]^2+] | –
